Assay results taken from paper PMC8279981, “A first-in-human, phase 1 study of the NEDD8 activating enzyme E1 inhibitor TAS4464 in patients with advanced solid tumors” (Investigational New Drugs, 2021).

Legend:
[1] = parameters: method as in unpublished data; conditions: TAS4464 combined with TNF-α; ref unpublished data; cited from earlier work
dog = tested on: dog; parameters: method as in unpublished data; conditions: TAS4464 without a N,N-dimethylacetamide group; ref unpublished data; cited from earlier work
[2] = tested on: 10 cytokines in peripheral blood; assay: Cytokines in peripheral blood (Luminex); format: in vivo, human
Method: (§1) Assessment of pharmacodynamics included evaluation of cullin-NEDD8, p27^Kip1 protein expression, and cytokines in peripheral blood samples. Expression of cullin-NEDD8 protein in peripheral blood mononuclear cells (PBMC) was analyzed using an enzyme-linked immunosorbent assay (ELISA). For the weekly dosing cohorts, changes from baseline in cullin-NEDD8 complexes in the PBMC on Day 1 and Day 2 of Cycle 1 as measured by ELISA were evaluated. For the weekly dosing with lead-in period cohorts, changes from baseline in cullin-NEDD8 complexes on Day 2 were evaluated. Expression of p27^Kip1 protein (cyclin-dependent kinase inhibitor 1B), a substrate of CRL, was determined by immunohistochemistry (IHC). p27^Kip1 IHC was performed on biopsy tumor specimens collected at baseline and Day 2 of Cycle 1, and their staining intensities were assessed using H-Scoring, with the scores compared between baseline and Day 2 of Cycle 1. […]

[3] = tested on: p27^Kip1 protein expression; assay: p27^Kip1 immunohistochemistry in biopsy tumor specimens; format: in vivo, human; conditions: Day 2 of Cycle 1, three patients; data not shown
Method: as §1

OATP1B1 = assay: Pharmacogenomics: SLCO1B1 polymorphisms versus PK; format: in vivo, human; conditions: phenotype assigned by SLCO1B1 genotypes; data not shown
Method: The PK endpoints included maximum plasma concentration (Cmax), area under the concentration–time curve from time zero up to the last observable concentration (AUC0-last) and plasma accumulation of TAS4464 after multiple doses. PK parameters were evaluated on Day 1 of Cycle 1 and Day 15 of Cycle 1 in the weekly dosing cohort, as well as on Day 1 of the lead-in period and Day 1 of Cycle 1 in the weekly with lead-in dosing cohort. The evaluation of the relationship between solute carrier organic anion transporter family member 1B1 (SLCO1B1) genetic polymorphisms and PK (i.e., the mean and individual clearance [CL] and volume of distribution at steady-state [Vdss] by each OATP1B1 phenotype) was assessed as the PGx analysis endpoint.

NAE = conditions: compared with MLN4924; cited from earlier work
[4] = tested on: nuclear factor κB (NFκB) activation; parameters: method as in PMID 31583781; conditions: multiple myeloma models; cited from earlier work
[5] = tested on: advanced or metastatic solid tumors; assay: Phase 1 study: clinical response (RECIST v1.1), PFS; format: in vivo, human
Text: Secondary objectives included assessment of AEs, treatment-related AEs, objective response rate (ORR), disease control rate (DCR), progression-free survival (PFS), and PK, pharmacodynamic, and pharmacogenomic (PGx) parameters with TAS4464 administration. The National Cancer Institute Common Terminology Criteria for Adverse Events (NCI CTCAE) v4.03 [17] was used to assess the severity of AEs. The Medical Dictionary for Regulatory Activities (MedDRA) version 22.1 was used to classify AEs. RECIST v1.1 [16] was used to determine clinical response, and all computed tomography images were assessed by the physician at the study site after completion of the imaging procedure. The ORR was defined as the percentage of patients with the best overall response of complete response (CR) or partial response (PR). The DCR was the percentage of patients with a best overall response of CR, PR, stable disease (SD), or non-CR/non-progressive disease (PD). PFS was defined as the time from the date of enrollment until the date of investigator-assessed radiological disease progression or death due to any cause, whichever occurred first. The analysis populations included in the study are summarized in the Supplementary Appendix. DLTs were recorded by incidence and 95% confidence intervals (CI). Median PFS and 95% CIs were calculated using Kaplan–Meier methodology. Best overall response was tabulated, and the ORR and DCR with 95% CIs were calculated by dose level. PK parameters were evaluated using non-compartmental methods. For the pharmacodynamic parameter of cullin-NEDD8 in PBMC, summary statistics and a scatter plot of the percentage change from baseline were produced. Missing data were not imputed. […] SAS software v9.4 (SAS Institute Inc., Cary NC, USA) was used for all statistical processing.

[6] = tested on: cullin-NEDD8 complexes in PBMC; assay: Cullin-NEDD8 protein in PBMC by ELISA; format: in vivo, human
Method: as §1

[7] = weekly dosing Level 1 (10 mg/m^2), n = 1
[8] = weekly dosing Level 2 (20 mg/m^2), n = 1
[9] = weekly dosing Level 3 (40 mg/m^2), n = 3
[10] = weekly dosing Level 4 (56 mg/m^2), n = 5
[11] = weekly dosing with lead-in Level 3 (20 → 40 mg/m^2), n = 3
[12] = weekly dosing with lead-in Level 4 (20 → 56 mg/m^2), n = 3
[13] = weekly dosing with lead-in Total, n = 6

## CCOc1cccc(F)c1C#Cc1cn([C@@H]2O[C@H](CNS(N)(=O)=O)[C@@H](O)[C@H]2O)c2ncnc(N)c12 [TAS4464]
[1]
  abnormal liver function tests: Abnormal liver function tests were also observed
dog
  toxic liver findings: toxic liver findings were not observed
[2]; five patients, weekly dosing with lead-in period cohort
  expression levels of the 10 cytokines in peripheral blood: no changes in the expression levels
[2]; one patient, weekly dosing with lead-in level 3, Day 3 of Cycle 1
  peak expression of IL-1β, IFNγ, IL-12p40, IL-12p70, IL-17A, IL-1α and IL-2 versus baseline: more than four times higher than at baseline
[3]
  expression of p27^Kip1 in tumor specimens versus baseline: almost unchanged or decreased
OATP1B1
  mean and individual CL and Vdss by OATP1B1 phenotype: no obvious differences were observed
NAE
  inhibitory effects in enzyme assays: greater inhibitory effects than MLN4924
[4]
  mechanism of antitumor activity: inhibition of nuclear factor κB (NFκB) activation
[5]; Total, N = 16
  Disease control rate (CR + PR + SD + non-CR/non-PD): 5 (31.3) n (%)
  Not evaluable (best overall response): 1 (6.3) n (%)
  PD (best overall response): 10 (62.5) n (%)
  Response rate (CR + PR): 0 n (%)
[5]; [7]
  Disease control rate (CR + PR + SD + non-CR/non-PD): 1 (100.0) n (%)
  Not evaluable (best overall response): 0 n (%)
  PD (best overall response): 0 n (%)
  Response rate (CR + PR): 0 n (%)
[5]; [8]
  Disease control rate (CR + PR + SD + non-CR/non-PD): 1 (100.0) n (%)
  Not evaluable (best overall response): 0 n (%)
  PD (best overall response): 0 n (%)
  Response rate (CR + PR): 0 n (%)
[5]; [9]
  Disease control rate (CR + PR + SD + non-CR/non-PD): 1 (33.3) n (%)
  Not evaluable (best overall response): 0 n (%)
  PD (best overall response): 2 (66.7) n (%)
  Response rate (CR + PR): 0 n (%)
[5]; [10]
  Disease control rate (CR + PR + SD + non-CR/non-PD): 2 (40.0) n (%)
  Not evaluable (best overall response): 0 n (%)
  PD (best overall response): 3 (60.0) n (%)
  Response rate (CR + PR): 0 n (%)
[5]; weekly dosing Total, N = 10
  Disease control rate (CR + PR + SD + non-CR/non-PD): 5 (50.0) n (%)
  Not evaluable (best overall response): 0 n (%)
  PD (best overall response): 5 (50.0) n (%)
  Response rate (CR + PR): 0 n (%)
[5]; weekly dosing cohort
  best overall response: no patients showed a CR or PR
[5]; weekly dosing cohort, 10 patients, 95% CI 18.7–81.3
  DCR: 50.0%
[5]; weekly dosing cohort, 95% CI 1.0–7.0
  median PFS: 3.7 months
[5]; [11]
  Disease control rate (CR + PR + SD + non-CR/non-PD): 0 n (%)
  Not evaluable (best overall response): 0 n (%)
  PD (best overall response): 3 (100.0) n (%)
  Response rate (CR + PR): 0 n (%)
[5]; [12]
  Disease control rate (CR + PR + SD + non-CR/non-PD): 0 n (%)
  Not evaluable (best overall response): 1 (33.3) n (%)
  PD (best overall response): 2 (66.7) n (%)
  Response rate (CR + PR): 0 n (%)
[5]; [13]
  Disease control rate (CR + PR + SD + non-CR/non-PD): 0 n (%)
  Not evaluable (best overall response): 1 (16.7) n (%)
  PD (best overall response): 5 (83.3) n (%)
  Response rate (CR + PR): 0 n (%)
[5]; weekly dosing with lead-in period cohort
  best overall response: no patients showed CR, PR, or SD
[5]; weekly dosing with lead-in period cohort, 95% CI 0.5–2.9
  median PFS: 1.5 months
[6]; Day 1 of Cycle 1, no dose-dependency
  cullin-NEDD8 complex measurements in PBMC versus baseline: lower than those at baseline in all patients
[6]; Day 2 of Cycle 1, dose dependency not observed
  cullin-NEDD8 complex measurements in PBMC versus baseline: lower than those at baseline, with the exception of two patients
